Measurements taken from patent US8299097B2, “Methods for treating inflammatory disorders” (The Brigham and Women's Hospital, Inc., priority 2008, dated 2012).

Key:
[1] = system: naïve BALB/c mice; test: Intranasal cys-LT in naïve BALB/c mice, lung histology; type: in vivo, mouse; conditions: 2 nmol, three successive days
Method: Thus, it was sought to determine whether either cys-LT amplified pulmonary […], BALB/c mice received inhalation challenges on three consecutive days with low-dose OVA (0.1%) for 30 minutes. Twelve hours before each challenge, the mice received intranasal LTD4, LTE4, or a buffer control. A cohort of mice treated with 1% OVA were maintained as a positive control. The mice were then euthanized, their BAL fluid collected, and their lungs examined histologically for evidence of inflammation and goblet cell metaplasia, a dominant pathologic signature of Th2-polarized mucosal inflammation. […] The extent of the cellularity and goblet cell responses of the LTE4-treated animals approached the levels of these parameters in the mice treated with 1% OVA.
15 bronchovascular bundles of each mouse were evaluated.

[2] = molecular target: human P2Y12 (Homo sapiens, UniProt Q9H244); test: Binding of cys-LTs to membranes of CHO cells stably expressing the human P2Y12 receptor; set-up: polyhistidine (HIS) tag (C); expressed in transfected cells
Description: A P2Y12 receptor cDNA was amplified by reverse transcriptase polymerase chain reaction (RT-PCR) from RNA extracted from primary hMCs and cloned into a mammalian expression vector. Expression was confirmed by detection of a histidine (HIS) tag by flow cytometry. Another cohort of CHO cells were stably transfected with a P2Y12 receptor construct in reverse orientation as a negative control. […] The cys-LT-induced ERK activation blocked by pre-treatment of the cells with pertussis toxin (PTX), was attenuated by treatment with the P2Y12 receptor-selective antagonist 2-methylthioadenosine monophosphate (2-MesAMP) (FIG. 1C), and was resistant to MK571, an inhibitor that blocks CysLT1R and some P2Y receptors (Mamedova, L., et al. 2005. Biochem. Pharmacol. 71:115-125). […] These responses were resistant to PTX and 2-MesAMP, and susceptible to MK571 in the case of the CysLT1R transfectants.
A human P2Y12 receptor cDNA was amplified by 30 cycles of PCR from reverse-transcribed total RNA extracted from primary cord blood hMCs. The primer sequences were 5′-[…] (SEQ ID NO: 1) and 3′-[…] (SEQ ID NO: 2). The fragment was cloned into a TA vector (INVITROGEN™). After verifying the nucleotide sequence, the fragment was subcloned into the multiple cloning site of the expression vector pEF1/His B, encoding a C-terminal polyhistidine (HIS) tag. A plasmid expressing the P2Y12 receptor construct in the forward orientation were transfected into CHO cells using Fugene HD reagent according to manufacturer's protocol. A construct in the reverse sequence was transfected in parallel as a negative control. […]
[^3H] […] Protein concentration was determined using Biorad Protein Assay Kit. […] The residual membrane-associated [^3H] on the filter was determined in 2 ml scintillation fluid by beta counter (Perkin Elmer). For [^3H]ADP, specific binding was determined by subtracting the amount of [^3H] bound in the presence of 100 μM 2-MesADP from total binding.

[3] = system: LAD2 cells; test: MIP-1β generation by LAD2 cells (ELISA); type: cell-based, human
Method: FIG. 2. Requirement for P2Y12 receptors in LTE4-mediated LAD2 cell activation. 2A. Calcium flux of LAD2 cells stimulated with the indicated agonists (500 nM) in the presence or absence of the P2Y12 receptor-selective antagonist 2-MeSAMP (100 μM). […] 2B. […] Cells sensitized overnight with IgE and challenged with anti-IgE were used as the positive control. 2C. […] Results in 2B and 2C are mean±SEM from three independent experiments each. 2D. Effect of shRNA-mediated knockdown of P2Y12 receptor mRNA expression by LAD2 cells.
FIG. 9. Effect of apyrase treatment on LT-mediated activation of LAD2 cells. 9A. […] Concentrations of MIP-1β were measured by ELISA. 9B. […] Lysates were resolved by SDS-PAGE and probed with the indicated antibodies against phospho- and total ERK. Results in 9A are the mean±½ range from two experiments, while 9B is representative of two experiments.
Pre-treatment of the LAD2 cells with 2-MesAMP blocked the LTE4-mediated increment in MIP-1β production by >50% (FIG. 2B). […] To exclude potential off-target effects of the inhibitors, samples of LAD2 cells were transfected with lentiviruses encoding a P2Y12 sequence-specific shRNA, a CysLT1R-specific shRNA, or an empty vector control before stimulation. […] LTE4- and LTD4-dependent production of PGD2 were abrogated by the knockdowns of P2Y12 and CysLT1R, respectively (FIG. 2C, bottom). Neither GPCR knockdown altered MIP-1β generation or PGD2 production in response to IgE-anti-IgE (FIG. 2C). LTE4-mediated MIP-1β generation (FIG. 9A) and ERK activation (FIG. 9B) were not altered by treatment of LAD2 cells with apyrase to degrade extracellular ADP.
The concentration of MIP-1β was measured by an ELISA (ENDOGEN®). PGD2 was quantitated by a PGD2-methoxylamine hydrochloride (PGD2-MOX) assay.

Chain of human P2Y12 (Q9H244 whole entry): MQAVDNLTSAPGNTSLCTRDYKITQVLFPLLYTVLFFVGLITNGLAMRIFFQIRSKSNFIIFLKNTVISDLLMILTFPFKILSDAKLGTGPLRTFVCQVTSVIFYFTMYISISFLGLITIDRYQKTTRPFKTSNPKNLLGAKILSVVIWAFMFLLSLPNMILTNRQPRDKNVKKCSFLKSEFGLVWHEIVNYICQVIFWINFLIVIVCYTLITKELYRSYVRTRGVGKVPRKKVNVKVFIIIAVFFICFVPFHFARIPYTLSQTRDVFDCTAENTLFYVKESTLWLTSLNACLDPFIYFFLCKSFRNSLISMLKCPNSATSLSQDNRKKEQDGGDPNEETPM

| Compound | lung histology (cellular influx, goblet cell metaplasia) [1] | binding to membranes of the transfectants [2] | Kd ([2]; membranes of P2Y12 CHO transfectants, read-out: affinity constant) [µM] | MIP-1β generation ([3]; LTE4 100 and 500 nM, 6 h) | effect on MIP-1β response to LTD4 and LTE4 ([3]; 2-MesAMP 100 μM, MK571 1 μM) |
| --- | --- | --- | --- | --- | --- |
| CCCCC/C=C\C\C=C/C=C/C=C/[C@@H](SC[C@H](N)C(=O)NCC(=O)O)[C@@H](O)CCCC(=O)O [LTD4] | no evidence of cellular influx or goblet cell metaplasia | also bound |  |  |  |
| CCCCC/C=C\C\C=C/C=C/C=C/[C@@H](SC[C@H](N)C(=O)O)[C@@H](O)CCCC(=O)O [LTE4] | no evidence of cellular influx or goblet cell metaplasia |  | 0.01 | induced the generation of large amounts of MIP-1β |  |
| CN(C)C(=O)CCSC(SCCC(=O)O)c1cccc(/C=C/c2ccc3ccc(Cl)cc3n2)c1 (stereo not drawn) [MK571] |  |  |  |  | suppressed the response to both ligands |
